From US7432045B2 (priority 2003, dated 2008)
Read-outs that look alike come from different tables or passages of the source. Peptide text beside a SMILES is read from it.

Assays:
HSV-1 KOS = assay: Plaque reduction assay; type: cell-based
Experimental: Cell culture and virus: The procedures for growing Vero cells and preparing high titer stocks of HSV-1 KOS as described in Grau et al., Invest. Ophthal. and Vis. Sci. 30: 2474 (1989) were utilized. Vero cells were maintained in carbonate-buffered DMEM supplemented with 5% calf serum and 5% fetal bovine serum (regular medium). For some studies, cells were switched to serum-free DMEM buffered with 25 mM HEPES (pH 7.4) and allowed to adapt to that medium for 30 min prior to experimental treatments. Vero cells were seeded into wells (0.28 cm^2) of microtiter plates either at 3.5×10^4 cells/well for use 1 day later (8×10^4 cells/well) or at 1×10^4 cells/well for use 3 days later (2×10^5 cells/well).
Plaque reduction assay: Confluent Vero cell cultures in microtiter plates were infected for 1 hour at 37° C. in 40 μL of medium. Except where indicated, peptide treatments in 40 μL of medium lasted from 1 hour before through 1 hour after infection. At the end of the adsorption period, the cultures were re-fed with 100 μL of regular medium. Plaque formation was scored 2 days later and the number of plaques scored per well was normalized to the number counted in the absence of peptide. Using an ocular micrometer, plaque size (π/2×L×S) was determined by measuring the largest plaque diameter (L) and the diameter at a 90° angle to that (S). The size of each of the first 40 scored plaques was measured except when a plaque included less than 10 rounded cells or touched the side of the well.

in vitro = settings: African green monkey
hrR3 virions = assay: Inactivation of virions in solution; type: cell-based, HSV-1; settings: 37° C.
Experimental: Inactivation of virions: To assess the ability of peptides to inactivate virions, 3-4×10^6 pfu/mL of virus was mixed on ice with peptide in serum-free DMEM and incubated for 1 h at 4 or 37° C. Aliquots (10 μL) were diluted 1000-fold into peptide-free serum-supplemented DMEM at 23° C. and 50 μL aliquots were assayed in triplicate for infectivity in Vero cell cultures (dilution assay). Alternatively, 10 μL aliquots were diluted into 1 mL of ice-cold peptide-free serum-supplemented DMEM and the virus was pelleted as described above (centrifugation assay). Viral pellets were then resuspended in 250 μL serum-supplemented DMEM and 50 μL aliquots were assayed in triplicate for infectivity in Vero cell cultures.
Some of the virus diluted without the addition of NaCl was pelleted immediately (Control), while the rest of the diluted virus was stored at 4° C. and pelleted 19 h later. The virus was pelleted and assayed for infectivity as described in Example 1.

For `CC(C)C[C@H](NC(=O)[C@H](C)NC(=O)[C@H](CC(C)C)NC(=O)[C@H](CC(C)C)NC(=O)[C@@H](NC(=O)[C@H](C)NC(=O)[C@@H]1CCCN1C(=O)[C@H](CC(C)C)NC(=O)[C@H](CC(C)C)NC(=O)[C@H](C)NC(=O)[C@@H](NC(=O)[C@H](C)NC(=O)[C@H](C)NC(=O)[C@H](CCCCN)NC(=O)[C@H](CCCCN)NC(=O)[C@H](CCCNC(=N)N)NC(=O)[C@@H](N)CCCNC(=N)N)C(C)C)C(C)C)C(=O)N[C@@H](CC(C)C)C(=O)N[C@@H](C)C(=O)N1CCC[C@H]1C(=O)O` [EB] (H-RRKKAAVALLPAVLLALLAP-OH), which “reduction of mean plaque size” value (HSV-1 KOS; 25 μM added 1 hour post-infection) is on record?
The value was 70%.

And the mean plaque size (HSV-1 KOS; 25 μM added 1 hour post-infection, untreated 66,000±6200)?
The mean plaque size was 6900±2600 μm^2.

And the “combined mean plaque size after transient treatments” value (HSV-1 KOS; 6 and 12 μM, up to 1 hour post-infection)?
Its value is 68,000±11,000 μm^2.

And the “fold lower concentration blocking infections compared to EBX” value (HSV-1 KOS; absence of serum, FIG. 1B)?
The value was 100 fold.

And the IC50 (HSV-1 KOS; absence of serum, FIG. 1B, read-out: antiviral IC50 (plaque formation))?
Its IC50 is 0.7 µM.

And the “fold lower concentration blocking infections compared to EBX” value (HSV-1 KOS; presence of serum (FIG. 1A))?
The value was 10 fold.

And the IC50 (HSV-1 KOS; present continuously after infection, read-out: inhibition of plaque expansion IC50)?
The IC50 was 12 µM.

What about the IC50 (HSV-1 KOS; present continuously starting 1 hour post-infection, read-out: plaque number IC50) of the same compound?
Its IC50 is 24 µM.

And the IC50 (HSV-1 KOS; present during infection and 1 hour pre- and post-infection, read-out: plaque number IC50)?
The IC50 was 5.5 µM.

What about the IC50 (in vitro) of the same compound?
Its IC50 is 68 µM.

For `N=C(N)NCCC[C@H](NC(=O)CN)C(=O)N[C@@H](CCCCN)C(=O)N[C@@H](CCCCN)C(=O)N[C@@H](CCCNC(=N)N)C(=O)N[C@@H](CCCNC(=N)N)C(=O)N[C@@H](CCC(N)=O)C(=O)N[C@@H](CCCNC(=N)N)C(=O)N[C@@H](CCCNC(=N)N)C(=O)N[C@@H](CCCNC(=N)N)C(=O)N[C@@H](CS)C(=O)O` [TAT-C, NH2-GRKKRRQRRRC-COOH], which IC50 (hrR3 virions; dilution or centrifugation, read-out: inactivation of virions IC50) is on record?
Its IC50 is ~75 µM.

What about the IC50 (hrR3 virions; read-out: Inactivation of Virions 37° C. IC50) of the same compound?
Its IC50 is 100 µM.
